For orientation: EC50 means the concentration that produces a half-maximal response.

Some results are limits rather than exact numbers.

For one compound, EC50 results are on record in US9254291B2, “Modulators of ATP-binding cassette transporters” (VERTEX PHARMACEUTICALS INCORPORATED, priority 2011, dated 2016).

The experiment has as its target T1, ΔF508-CFTR (Homo sapiens, UniProt P13569, DEL508-508).
T1 construct: expressed in transfected cells
Put plainly: Membrane potential optical assay for ΔF508-CFTR correction properties of compounds. Conditions: ΔF508-CFTR in NIH3T3 mouse fibroblasts; test behind Table 2 not named. Type of experiment: cell-based. The text has this: Assays for Detecting and Measuring ΔF508-CFTR Correction Properties of Compounds
Membrane potential optical methods for assaying ΔF508-CFTR modulation properties of compounds.
The assay utilizes fluorescent voltage sensing dyes to measure changes in membrane potential using a fluorescent plate reader (e.g., FLIPR III, Molecular Devices, Inc.) as a readout for increase in functional ΔF508-CFTR in NIH 3T3 cells. The driving force for the response is the creation of a chloride ion gradient in conjunction with channel activation by a single liquid addition step after the cells have previously been treated with compounds and subsequently loaded with a voltage sensing dye.
Identification of Correction Compounds
To identify small molecules that correct the trafficking defect associated with ΔF508-CFTR; a single-addition HTS assay format was developed. […] Cells are then ready for compound exposure after adhering to the bottom of the assay plates.
The cells were incubated in serum-free medium for 16-24 hrs in tissue culture incubator at 37° C., 5% CO2, 90% humidity in the presence or absence (negative control) of test compound. […] The addition of Cl^−-free medium promoted Cl^− efflux in response to ΔF508-CFTR activation and the resulting membrane depolarization was optically monitored using voltage sensor dyes. […]

T1 sequence (P13569 with tags, fused parts or gaps DEL508-508): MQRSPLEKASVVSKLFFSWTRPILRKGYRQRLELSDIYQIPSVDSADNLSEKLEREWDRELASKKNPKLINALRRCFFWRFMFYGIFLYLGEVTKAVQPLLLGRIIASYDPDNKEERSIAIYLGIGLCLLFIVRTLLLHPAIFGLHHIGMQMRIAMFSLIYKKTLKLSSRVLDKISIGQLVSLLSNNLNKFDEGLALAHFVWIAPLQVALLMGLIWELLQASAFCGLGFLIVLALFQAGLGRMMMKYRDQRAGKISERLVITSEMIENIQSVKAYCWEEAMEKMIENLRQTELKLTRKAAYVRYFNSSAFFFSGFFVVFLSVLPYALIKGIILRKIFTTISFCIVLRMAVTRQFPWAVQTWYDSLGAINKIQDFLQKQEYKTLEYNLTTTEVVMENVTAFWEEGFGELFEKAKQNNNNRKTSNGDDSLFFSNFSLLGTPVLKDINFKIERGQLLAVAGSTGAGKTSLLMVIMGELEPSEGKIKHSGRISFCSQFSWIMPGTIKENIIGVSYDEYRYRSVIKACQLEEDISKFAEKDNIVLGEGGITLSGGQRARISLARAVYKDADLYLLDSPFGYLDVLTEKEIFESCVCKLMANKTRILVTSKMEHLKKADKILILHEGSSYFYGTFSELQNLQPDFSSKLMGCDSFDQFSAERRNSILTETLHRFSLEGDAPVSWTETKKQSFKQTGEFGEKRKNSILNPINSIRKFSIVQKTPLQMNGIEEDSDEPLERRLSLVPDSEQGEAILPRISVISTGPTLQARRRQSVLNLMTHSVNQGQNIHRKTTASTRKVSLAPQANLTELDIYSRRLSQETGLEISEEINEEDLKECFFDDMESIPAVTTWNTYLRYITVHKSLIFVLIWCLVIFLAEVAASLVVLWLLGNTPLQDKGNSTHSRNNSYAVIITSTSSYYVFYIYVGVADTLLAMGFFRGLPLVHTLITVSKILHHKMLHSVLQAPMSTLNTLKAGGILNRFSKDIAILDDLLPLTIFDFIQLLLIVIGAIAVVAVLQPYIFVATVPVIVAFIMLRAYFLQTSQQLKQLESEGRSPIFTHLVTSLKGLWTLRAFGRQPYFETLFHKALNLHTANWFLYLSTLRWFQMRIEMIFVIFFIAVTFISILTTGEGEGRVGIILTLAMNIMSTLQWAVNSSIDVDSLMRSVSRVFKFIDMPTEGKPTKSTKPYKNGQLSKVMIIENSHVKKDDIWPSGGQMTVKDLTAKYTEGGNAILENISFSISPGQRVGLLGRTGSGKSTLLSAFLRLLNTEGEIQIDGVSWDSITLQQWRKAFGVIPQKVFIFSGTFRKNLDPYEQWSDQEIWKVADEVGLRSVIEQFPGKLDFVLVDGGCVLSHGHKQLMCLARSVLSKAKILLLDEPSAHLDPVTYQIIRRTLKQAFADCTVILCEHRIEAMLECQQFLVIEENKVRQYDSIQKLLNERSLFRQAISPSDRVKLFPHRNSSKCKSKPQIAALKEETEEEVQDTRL

Regarding `CC1(C)c2cc3cc(NC(=O)C4(c5ccc6c(c5)OC(F)(F)O6)CC4)c(F)cc3n2C[C@H](CO)OC1O` (stereo partly drawn) [1-(2,2-difluorobenzo[d][1,3]dioxol-5-yl)-N-((4R)-8-fluoro-2-hydroxy-4-(hydroxymethyl)-1,1-dimethyl-1,2,4,5-tetrahydro-[1,4]oxazepino[4,5-a]indol-9-yl)cyclopropanecarboxamide], the EC50 is < 2000 nM.
